Laboratory results published in publication PMC9037111, “Structure-based design, synthesis, and biological evaluation of novel piperine–resveratrol hybrids as antiproliferative agents targeting SIRT-2” (RSC Advances, 2021).
Read-outs that look alike come from different tables or passages of the source.

Assays:
[1] = molecular target: T1, SIRT2 (Homo sapiens, UniProt Q8IXJ6); test: biochemical; parameters: Sirtuin-TK assay, percent inhibition of human SIRT1 or SIRT2 at 5 and 50 uM
T1 sequence (Q8IXJ6 2-389): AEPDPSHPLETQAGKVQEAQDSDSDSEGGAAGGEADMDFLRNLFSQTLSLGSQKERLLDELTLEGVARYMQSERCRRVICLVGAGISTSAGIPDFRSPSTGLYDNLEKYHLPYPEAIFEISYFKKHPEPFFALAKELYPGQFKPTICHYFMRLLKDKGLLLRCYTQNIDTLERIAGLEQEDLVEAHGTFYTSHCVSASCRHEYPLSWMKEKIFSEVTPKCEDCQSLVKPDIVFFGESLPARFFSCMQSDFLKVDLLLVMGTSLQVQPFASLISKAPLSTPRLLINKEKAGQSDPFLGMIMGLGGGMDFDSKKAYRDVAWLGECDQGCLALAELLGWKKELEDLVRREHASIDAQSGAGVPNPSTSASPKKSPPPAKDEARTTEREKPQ
Experimental: (§1) Sirtuin-TK assay was performed to estimate the Sirtuins inhibitory potential of 5a–h (Tables 2 and 3). The results of this test strongly complemented the findings of cancer cell-based assessments. […] Of the 8 compounds evaluated, 3 analogs (5b, 5e and 5h) were more likely to inhibit Sirt2 (>70% inhibition) than Sirt1 (<50% inhibition) at 50 μM. The other compounds were poor inhibitors of both enzymes. […] 4.2.2. Sirtuin inhibitory assay

[2] = molecular target: T2, SIRT1 (Homo sapiens, UniProt Q96EB6); test: biochemical; parameters: Sirtuin-TK assay, percent inhibition of human SIRT1 or SIRT2 at 5 and 50 uM
T2 sequence (Q96EB6 2-747): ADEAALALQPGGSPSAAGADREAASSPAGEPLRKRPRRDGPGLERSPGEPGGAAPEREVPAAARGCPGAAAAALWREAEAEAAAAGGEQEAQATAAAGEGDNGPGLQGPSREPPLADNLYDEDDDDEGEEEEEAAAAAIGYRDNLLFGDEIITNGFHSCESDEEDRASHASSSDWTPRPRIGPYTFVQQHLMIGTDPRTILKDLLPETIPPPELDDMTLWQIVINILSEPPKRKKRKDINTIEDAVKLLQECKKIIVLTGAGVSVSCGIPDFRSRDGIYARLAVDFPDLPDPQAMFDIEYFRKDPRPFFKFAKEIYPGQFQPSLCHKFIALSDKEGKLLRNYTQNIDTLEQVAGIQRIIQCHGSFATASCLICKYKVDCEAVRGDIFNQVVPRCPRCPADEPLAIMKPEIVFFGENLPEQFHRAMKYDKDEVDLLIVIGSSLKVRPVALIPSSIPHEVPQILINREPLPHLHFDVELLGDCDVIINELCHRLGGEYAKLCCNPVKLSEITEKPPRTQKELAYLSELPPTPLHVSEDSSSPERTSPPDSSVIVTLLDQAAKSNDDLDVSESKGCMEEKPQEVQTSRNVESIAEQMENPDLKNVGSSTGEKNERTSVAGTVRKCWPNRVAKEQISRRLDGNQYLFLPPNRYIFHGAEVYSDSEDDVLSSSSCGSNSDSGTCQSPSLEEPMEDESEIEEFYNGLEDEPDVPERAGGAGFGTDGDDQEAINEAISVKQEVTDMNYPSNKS
Experimental: as §1

[3] = test system: CCRF-CEM; test: cells; parameters: species or system NCI-60 human tumour cell lines; NCI-60 one-dose screen at 10 uM, percent growth inhibition versus untreated control cells; settings: Homo sapiens, CCRF-CEM, growth inhibition, one dose
Experimental: (§2) The antiproliferative activity of the target compounds 5a–h was screened against a panel of 60 cancer cell lines according to NCI-guidelines at concentration of 10 μM. The results for each compound (Table 1) were recorded as the percent of growth inhibition of treated cells compared to untreated control cells. […] In addition, 5b recorded significant activity against leukemia cancer cell lines K-562 and MOLT-4, Non-small cell lung cancer cell lines NCI-H322M and NCI-H460, Colon cancer cell lines COLO 205, HCT-15 and HCT-116, CNS cancer cell lines SF-295 and SF-539, Melanoma cancer cell lines LOX IMVI and UACC-62, Ovarian cancer cell lines NCI/ADR-RES, OVCAR-3, and OVCAR-4, Renal cancer cell lines CAKI-1, ACHN, and UO-31, and Breast cancer MCF7 cell line with growth inhibition percentage between 80 to 95. […] The methodology of the NCI anticancer screening has been described in detail elsewhere (https://dtp.cancer.gov/).[52]

[4] = test system: SW-620; test: cells; parameters: species or system NCI-60 human tumour cell lines; NCI-60 one-dose screen at 10 uM, percent growth inhibition versus untreated control cells; settings: Homo sapiens, SW-620, growth inhibition, one dose
Experimental: as §2

[5] = test system: BT-549; test: cells; parameters: species or system NCI-60 human tumour cell lines; NCI-60 one-dose screen at 10 uM, percent growth inhibition versus untreated control cells; settings: Homo sapiens, BT-549, growth inhibition, one dose
Experimental: as §2

[6] = molecular target: T1, SIRT2; test: sirtuin deacetylase inhibition assay, IC50; type: biochemical
[7] = test system: SK-MEL-28; test: cells; parameters: species or system NCI-60 human tumour cell lines; NCI-60 one-dose screen at 10 uM, percent growth inhibition versus untreated control cells; settings: Homo sapiens, SK-MEL-28, growth inhibition, one dose
Experimental: as §2

[8] = test system: ACHN; test: cells; parameters: species or system NCI-60 human tumour cell lines; NCI-60 one-dose screen at 10 uM, percent growth inhibition versus untreated control cells; settings: Homo sapiens, ACHN, growth inhibition, one dose
Experimental: as §2

[9] = test system: HOP-62; test: cells; parameters: species or system NCI-60 human tumour cell lines; NCI-60 one-dose screen at 10 uM, percent growth inhibition versus untreated control cells; settings: Homo sapiens, HOP-62, growth inhibition, one dose
Experimental: as §2

[10] = test system: NCI-H460; test: cells; parameters: species or system NCI-60 human tumour cell lines; NCI-60 one-dose screen at 10 uM, percent growth inhibition versus untreated control cells; settings: Homo sapiens, NCI-H460, growth inhibition, one dose
Experimental: as §2

[11] = read-out: Growth% inhibition / 5a
[12] = read-out: Growth% inhibition / 5e
[13] = read-out: Growth% inhibition / 5b
[14] = read-out: Growth% inhibition / 5h

Compound `O=C(/C=C/C=C/c1ccc2c(c1)OCO2)NN=Cc1ccc(O)cc1` [5a, (2E,4E)-5-(Benzo[d][1,3]dioxol-5-yl)-N′-((E,Z)-4-hydroxybenzylidene)penta-2,4-dienehydrazide] has an inhibition at 5 µM [1] of 19 ± 3%, an inhibition at 5 µM [2] of 13 ± 3% and an inhibition at 50 µM [2] of 42 ± 3%. It also gave an inhibition at 10 µM [3, 11] of 32.4%, an inhibition at 10 µM [4, 11] of 19.8% and an inhibition at 10 µM [5, 11] of 21.5%.

`CCN(CC)c1ccc(/C=N/NC(=O)/C=C/C=C/c2ccc3c(c2)OCO3)c(O)c1` [5e, (2E,4E)-5-(Benzo[d][1,3]dioxol-5-yl)-N′-((E)-4-(diethylamino)-2-hydroxybenzylidene)penta-2,4-dienehydrazide] was tested, and the IC50 [6] was 23 ± 2 µM, the inhibition at 5 µM [1] was 24 ± 3% and the inhibition at 50 µM [1] was 74 ± 2%. The inhibition at 5 µM [2] was 20 ± 5%, the inhibition at 50 µM [2] was 44 ± 2% and the inhibition at 10 µM [7, 12] was 48%. The inhibition at 10 µM [8, 12] was 74.4%, the inhibition at 10 µM [3, 12] was 78.3% and the inhibition at 10 µM [4, 12] was 67.7%. The inhibition at 10 µM [9, 12] was 71.5%, the inhibition at 10 µM [10, 12] was 80.2% and the inhibition at 10 µM [5, 12] was 48.2%.

Work on `CN(C)c1ccc(C=NNC(=O)/C=C/C=C/c2ccc3c(c2)OCO3)cc1` (mixture of isomers) [5d, (2E,4E)-5-(Benzo[d][1,3]dioxol-5-yl)-N′-((E/Z)-4-(dimethylamino)-benzylidene)penta-2,4-dienehydrazide] yielded an inhibition at 5 µM [1] of 18 ± 2%, an inhibition at 5 µM [2] of 11 ± 2% and an inhibition at 10 µM ([3]; read-out: Growth% inhibition / 5d) of 20.5%.

`O=C(/C=C/C=C/c1ccc2c(c1)OCO2)N/N=C/c1ccc(O)cc1O` [5b, (2E,4E)-5-(Benzo[d][1,3]dioxol-5-yl)-N′-((E)-2,4-dihydroxybenzylidene)penta-2,4-dienehydrazide] gave an IC50 [6] of 21 ± 3 µM, an inhibition at 5 µM [1] of 26 ± 3% and an inhibition at 50 µM [1] of 78 ± 3%. The inhibition at 5 µM [2] was 18 ± 3%, the inhibition at 10 µM [7, 13] was 57.9% and the inhibition at 10 µM [8, 13] was 85.6%. It also gave an inhibition at 10 µM [3, 13] of 81%, an inhibition at 10 µM [4, 13] of 73.5% and an inhibition at 10 µM [9, 13] of 72.9%. It also gave an inhibition at 10 µM [10, 13] of 86% and an inhibition at 10 µM [5, 13] of 72.7%.

Compound `C/C(=N\NC(=O)/C=C/C=C/c1ccc2c(c1)OCO2)c1ccc(Br)cc1` [5h, (2E,4E)-5-(Benzo[d][1,3]dioxol-5-yl)-N′-((E)-1-(4-bromophenyl)ethylidene)penta-2,4-dienehydrazide] has an IC50 [6] of 26 ± 3 µM, an inhibition at 5 µM [1] of 22 ± 5% and an inhibition at 50 µM [1] of 75 ± 3%. For the same compound, the inhibition at 5 µM [2] was 16 ± 5%, the inhibition at 50 µM [2] was 44 ± 3% and the inhibition at 10 µM [7, 14] was 14.2%. The inhibition at 10 µM [8, 14] was 24.1%, the inhibition at 10 µM [3, 14] was 44.3% and the inhibition at 10 µM [4, 14] was 25.4%. For the same compound, the inhibition at 10 µM [9, 14] was 33.2% and the inhibition at 10 µM [10, 14] was 60.4%.
